The source of these data is ChEMBL document CHEMBL3779792, “Anti-proliferative evaluation of monoterpene derivatives against leukemia” (Eur J Med Chem, 2016).

Structures are written as SMILES.

Assay [1] in a line: Cytotoxicity against human NALM6 cells after 72 hrs by Cell-Titer Glo assay. In kind it is functional, cell-based. To be noted: NALM-6, 72 h.
Assay [2] has as its system BJ. As to the kind of experiment: Cytotoxicity against human BJ cells after 72 hrs by Cell-Titer Glo assay. The assay is classed as cell-based.
A short description of assay [3]: Cytotoxicity against human SEM cells after 72 hrs by Cell-Titer Glo assay. In kind it is functional, cell-based.
For assay [4], the system named is Jurkat. As to the kind of experiment: Cytotoxicity against human Jurkat cells after 72 hrs by Cell-Titer Glo assay. In kind it is functional, cell-based.
Assay [5] has as its system Raji. As to the kind of experiment: Cytotoxicity against human Raji cells after 72 hrs by Cell-Titer Glo assay. The assay is classed as functional, cell-based.
Assay [6] has as its system HepG2. Put plainly: Cytotoxicity against human HepG2 cells after 72 hrs by Cell-Titer Glo assay. In kind it is functional, cell-based. To be noted: HepG2, 72 h.
In assay [7] the test system is HEK293. As to the kind of experiment: Cytotoxicity against HEK293 cells after 72 hrs by Cell-Titer Glo assay. The assay is classed as cell-based. Particulars: Homo sapiens, HEK293, 72 h.

In the case of `COc1ccc(/C=C/[C@@](C)(/C=C/c2ccc(O)c(/C=C/C(C)=O)c2)CCC=C(C)C)cc1`, the EC50 in assay [1] was above 43.5 µM; in assay [2], 12.3 µM; in assay [3], 8.67 µM; in assay [4] it was above 49 µM; in assay [5], above 26 µM; in assay [6], above 52.1 µM. Moreover, in assay [7], the EC50 came to 14.6 µM.

Consider `C=C[C@](C)(CCCC(C)C)CCc1ccc(O)cc1`, for which the EC50 in assay [1] was 27.5 µM; in assay [2], above 36.6 µM; in assay [3], above 36.6 µM; in assay [4], above 49 µM; in assay [5], above 26 µM; in assay [6], above 52.1 µM. This compound also came in with an EC50 in assay [7] above 36.6 µM.

As to `C=C[C@@](C)(/C=C/c1ccc(O)cc1)CC/C=C/C(=O)OCC`, the EC50 is above 43.5 µM in assay [1]; above 36.6 µM in assay [2]; above 36.6 µM in assay [3]; above 49 µM in assay [4]; above 26 µM in assay [5]; above 52.1 µM in assay [6]. In assay [7], this compound came in with an EC50 above 36.6 µM.

For the compound `C=C[C@@](C)(/C=C/c1ccc(OCc2ccccc2)cc1)CCC=C(C)C`, the EC50 is above 43.5 µM in assay [1]; above 36.6 µM in assay [2]; above 36.6 µM in assay [3]; above 49 µM in assay [4]; above 26 µM in assay [5]; above 52.1 µM in assay [6]. In assay [7], the 50% effective concentration (EC50) is above 36.6 µM.

On to `C=C[C@@](C)(/C=C/c1ccc(OS(=O)(=O)c2ccc(C)cc2)cc1)CCC=C(C)C`, for which the EC50 in assay [1] was above 43.5 µM; in assay [2], above 36.6 µM; in assay [3], above 43.5 µM; in assay [4], above 49 µM; in assay [5], above 26 µM; in assay [6], above 52.1 µM. In assay [7], this compound gave an EC50 above 36.6 µM.

For `C=C[C@@](C)(/C=C/c1ccc(Nc2ccc3c(c2)OCO3)cc1)CCC=C(C)C`, the EC50 in assay [1] was above 43.5 µM; in assay [2], above 36.6 µM; in assay [3] it was above 36.6 µM; in assay [5] it was above 26 µM; in assay [6] it was above 52.1 µM; in assay [7], above 36.6 µM.

On to `C=C[C@@](C)(/C=C/c1ccc(-c2cccc(Br)c2)cc1)CCC=C(C)C`, for which the EC50 was above 43.5 µM in assay [1]; above 36.6 µM in assay [2]; above 36.6 µM in assay [3]; above 26 µM in assay [5]; above 52.1 µM in assay [6]; above 36.6 µM in assay [7].

For `CC(C)=CCC[C@](C)(/C=C/c1ccc(O)cc1)/C=C/c1ccc(C#N)cc1`, the EC50 is above 43.5 µM in assay [1]; above 36.6 µM in assay [2]; above 36.6 µM in assay [3]; above 26 µM in assay [5]; above 52.1 µM in assay [6]; above 36.6 µM in assay [7].

Consider `C=C[C@@](C)(/C=C/c1ccc(-c2c(F)c(F)c(F)c(F)c2F)cc1)CCC=C(C)C`, for which the EC50 is above 43.5 µM in assay [1]; above 36.6 µM in assay [2]; above 36.6 µM in assay [3]; above 26 µM in assay [5]; above 52.1 µM in assay [6]; above 36.6 µM in assay [7].

Consider `C=C[C@@](C)(/C=C/c1ccc(Nc2ccc(C(F)(F)F)cc2)cc1)CCC=C(C)C`, for which the EC50 in assay [1] is above 43.5 µM; in assay [2], above 36.6 µM; in assay [3], above 36.6 µM; in assay [5], above 26 µM; in assay [6], above 52.1 µM; in assay [7], above 36.6 µM.

As for `C=C[C@@](C)(/C=C/c1ccc(Nc2ccc(F)c(F)c2)cc1)CCC=C(C)C`, the EC50 in assay [1] was above 43.5 µM; in assay [2], above 36.6 µM; in assay [3] it was above 36.6 µM; in assay [5], above 26 µM; in assay [6], above 52.1 µM; in assay [7], above 36.6 µM.

Turning to `C=C[C@@](C)(/C=C/c1ccc(Nc2ccc(OC)cc2)cc1)CCC=C(C)C`, the EC50 in assay [1] is above 43.5 µM; in assay [2], above 36.6 µM; in assay [3], above 36.6 µM; in assay [5] it was above 26 µM; in assay [6], above 52.1 µM; in assay [7], above 36.6 µM.

As to `CC(C)=CCC[C@](C)(/C=C/c1ccc(O)cc1)/C=C/c1cccc(Cl)c1`, the EC50 was above 43.5 µM in assay [1]; above 36.6 µM in assay [2]; above 36.6 µM in assay [3]; above 26 µM in assay [5]; above 52.1 µM in assay [6]; above 36.6 µM in assay [7].

For the compound `C=C[C@@](C)(/C=C/c1ccc(Nc2ccc(Cl)c(Cl)c2)cc1)CCC=C(C)C`, the concentration for a half-maximal effect (EC50) was above 43.5 µM in assay [1]; above 36.6 µM in assay [2]; above 36.6 µM in assay [3]; above 26 µM in assay [5]; above 52.1 µM in assay [6]; above 36.6 µM in assay [7].

Regarding `C=C[C@@](C)(/C=C/c1ccc(-c2cccc(F)c2)cc1)CCC=C(C)C`, the EC50 in assay [1] was above 43.5 µM; in assay [2], above 36.6 µM; in assay [3] it was above 36.6 µM; in assay [5] it was above 26 µM; in assay [6] it was above 52.1 µM; in assay [7], above 36.6 µM.

As for `C=C[C@@](C)(/C=C/c1ccc(Nc2cc(F)cc(F)c2)cc1)CCC=C(C)C`, the EC50 was above 43.5 µM in assay [1]; above 36.6 µM in assay [2]; above 36.6 µM in assay [3]; above 26 µM in assay [5]; above 52.1 µM in assay [6]; above 36.6 µM in assay [7].

With `C=C[C@@](C)(/C=C/c1ccc(-c2ccc(F)cc2)cc1)CCC=C(C)C`, the EC50 was above 43.5 µM in assay [1]; above 36.6 µM in assay [2]; above 36.6 µM in assay [3]; above 26 µM in assay [5]; above 52.1 µM in assay [6]; above 36.6 µM in assay [7].

Regarding `C=C[C@@](C)(/C=C/c1ccc(Nc2c(F)cc(F)cc2F)cc1)CCC=C(C)C`, the EC50 is above 43.5 µM in assay [1]; above 36.6 µM in assay [2]; above 36.6 µM in assay [3]; above 26 µM in assay [5]; above 52.1 µM in assay [6]; above 36.6 µM in assay [7].

Regarding `C=C[C@@](C)(/C=C/c1ccc(-c2ccc(Cl)cc2)cc1)CCC=C(C)C`, the EC50 in assay [1] was above 43.5 µM; in assay [2], above 36.6 µM; in assay [3] it was above 36.6 µM; in assay [5], above 26 µM; in assay [6] it was above 52.1 µM; in assay [7], above 36.6 µM.

Consider `C=C[C@@](C)(/C=C/c1ccc(Nc2cccc(C(F)(F)F)c2)cc1)CCC=C(C)C`, for which the EC50 in assay [1] is above 43.5 µM; in assay [2], above 36.6 µM; in assay [3], above 36.6 µM; in assay [5] it was above 26 µM; in assay [6], above 52.1 µM; in assay [7] it was above 36.6 µM.

For `C=C[C@@](C)(/C=C/c1ccc(Nc2ccccc2)cc1)CCC=C(C)C`, the EC50 was above 43.5 µM in assay [1]; above 36.6 µM in assay [2]; above 36.6 µM in assay [3]; above 26 µM in assay [5]; above 52.1 µM in assay [6]; above 36.6 µM in assay [7].

Turning to `C=C[C@@](C)(/C=C/c1ccc(Nc2ccc(OC)c(F)c2)cc1)CCC=C(C)C`, the EC50 in assay [1] was above 43.5 µM; in assay [2], above 36.6 µM; in assay [3], above 36.6 µM; in assay [5], above 26 µM; in assay [6], above 52.1 µM; in assay [7] it was above 36.6 µM.

For `C=C[C@@](C)(/C=C/c1ccc(Nc2cc(F)c(F)c(F)c2)cc1)CCC=C(C)C`, the EC50 was above 43.5 µM in assay [1]; above 36.6 µM in assay [2]; above 36.6 µM in assay [3]; above 26 µM in assay [5]; above 52.1 µM in assay [6]; above 36.6 µM in assay [7].

Usually EC50 stands for the concentration needed to bring the measured effect to its halfway point. Low readings indicate greater potency, high ones weaker potency.
